Laboratory results: US20240277754A1, “IMMUNO-ONCOLOGY THERAPEUTIC COMPOSITION USING ADJUVANT INCLUDING LIPOPEPTIDES AND POLY (I:C)” (CHA VACCINE RESEARCH INSTITUTE CO., LTD, priority 2021, published 2024)

Tested on: MC38 mouse colon cancer cells
Test: Tumor suppressive efficacy in combination with other TLR ligands or saponin, colon cancer mouse model
Assay type: in vivo, C57BL/6 mice
Conditions: L-pampo 45 μg/dose, QS21 10 μg/dose, Imiquimod 10 μg/dose, intratumoral four times at 3-day intervals, D20, 12 days after start
Procedure: Tumors were generated in mice by subcutaneous injection of 1×10^5 MC38 mouse colon cancer cells into the right flank of 8-week-old female C57BL/6 mice (OrientBio, Korea). The immuno-oncology drug L-pampo was prepared by mixing 25 μg of Pam3CSK4 and 20 μg of poly(I:C). […] This was administered into the tumor four times at 3-day intervals. Tumor sizes for all experimental groups were measured every three days. The long and short axes of the tumor were measured, and the size of the tumor was calculated as [½×size of the long axis×(size of the short axis)^2]. The tumor suppressive efficacy was analyzed based on the calculated tumor size.

Compound	size of the tumor reduced compared to negative control (buffer)
CC(C)Cn1cnc2c(N)nc3ccccc3c21 [imiquimod]	about 39%
QS-21	about 57%
